Patent US5071859A, “N-substituted azaheterocyclic carboxylic acids and pharmaceutical uses” (priority 1988, dated 1991)
Structures can show the parent of a compound that is named as a salt.

Tested on: GABA uptake
Assay: not given
Conditions: oral; cited from earlier work

Row | SMILES | orally active inhibitors of GABA uptake
1 | O=C(O)C1CCCN(CCC=C(c2ccccc2)c2ccccc2)C1 (stereo not shown) [SK&F 89976A, N-(4,4-diphenyl-3-butenyl)nipecotic acid] | orally active inhibitors of GABA uptake
2 | O=C(O)C1=CCCN(CCC=C(c2ccccc2)c2ccccc2)C1 [SK&F 100330A, N-(4,4-diphenyl-3-butenyl)guvacine] | orally active inhibitors of GABA uptake
3 | O=C(O)CC1CCN(CCC=C(c2ccccc2)c2ccccc2)C1 (stereo not drawn) [SK&F 100561, N-(4,4-diphenyl-3-butenyl)homo-β-proline] | orally active inhibitors of GABA uptake
4 | O=C(O)C1CCCN(CCC=C(c2ccccc2)c2cccs2)C1 (stereo not shown) [SK&F 100604J, N-(4-phenyl-4-(2-thienyl)-3-butenyl)nipecotic acid] | orally active inhibitors of GABA uptake

Tested on: GABA uptake from the synaptic cleft into presynaptic nerve terminals and glial cells
Assay: not given
Conditions: cited from earlier work

Row | SMILES | inhibitor of GABA uptake from the synaptic cleft
5 | O=C(O)C1CCCNC1 (stereo not shown) [nipecotic acid, piperidine-3-carboxylic acid] | potent inhibitor of GABA uptake

Tested on: [^3 H]-GABA uptake
Assay: in vitro inhibition of [^3 H]-GABA uptake (method of Fjalland)
Assay type: biochemical, Male Wistar rat (cortical tissue)
Conditions: rat cortical tissue homogenate; 60 min at 30° C.; pH 7.5; ligand 0.2 nM
Protocol: Male Wistar rat cortical tissue was gently homogenized by hand using a glass/PTFE homogenizer in 10 volumes of 0.32 M sucrose. Incubation was performed in a 40 mM tris HCl buffer (pH 7.5 at 30° C.) containing […], […], 4 mM MgSO4, 2.3 mM CaCl2 and 10 mM glucose, for 60 min. at 30° C. Ligand concentration was 0.2 nM.

Row | IC50 | SMILES
6 | 104 nM | O=C(O)[C@@H]1CCCN(CCOC=C(c2ccccc2)c2ccccc2)C1 [Example 2, (R)-1-[2-[[2,2-Diphenylethenyl]oxy]ethyl]-3-piperidine carboxylic acid hydrochloride]
7 | 8 nM | Cc1ccsc1C(=COCCN1CCC[C@@H](C(=O)O)C1)c1sccc1C [Example 12, (R)-1-[2-[[2,2-bis(3-Methyl-2-thienyl)ethenyl]oxy]ethyl]-3-piperidine carboxylic acid]
8 | 26 nM | Cc1ccccc1C(=COCCN1CCC=C(C(=O)O)C1)c1ccccc1C [Example 13, 1-[2-[[2,2-bis(2-Methylphenyl)ethenyl]oxy]ethyl]-1,2,5,6-tetrahydro-3-pyridine carboxylic acid hydrochloride]
9 | 30 nM | Cc1ccccc1C(=COCCN1CCC[C@@H](C(=O)O)C1)c1ccc(F)cc1C [Example 14, (R)-1-[2-[[2-(4-Fluoro-2-methylphenyl)-2-(2-methylphenyl)ethenyl]oxy]ethyl]-3-piperidine carboxylic acid hydrochloride]
10 | 15 nM | Cc1ccccc1C(=COCCN1CCC[C@@H](C(=O)O)C1)c1ccccc1C [Example 17, (R)-1-[2-[[2,2-bis(2-Methylphenyl)ethenyl]oxy]ethyl]-3-piperidine carboxylic acid hydrochloride]
11 | 47 nM | CCc1ccccc1C(=COCCN1CCC=C(C(=O)O)C1)c1ccccc1CC [Example 23, 1-[2-[[2,2-bis(2-Ethylphenyl)ethenyl]oxy]ethyl]-1,2,5,6-tetrahydro-3-pyridine carboxylic acid hydrochloride]
12 | 12 nM | Cc1ccccc1C(=COCCN1CCC[C@@H](C(=O)O)C1)c1ccccc1Cl [Example 30, (R)-1-[2-[[2-(2-Chlorophenyl)-2-(2-methylphenyl)ethenyl]oxy]ethyl]-3-piperidine carboxylic acid hydrochloride]
13 | 127 nM | O=C(O)[C@@H]1CCCN(CCOCC(c2ccccc2)c2ccccc2)C1 [Example 33, (R)-1-[2-[[2,2-Diphenylethyl]oxy]ethyl]-3-piperidine carboxylic acid]
